Data reported in patent US20090270497A1, “Treatment of Non-Localized Inflammation with pan-HDAC Inhibitors” (PHARMACYCLICS, INC., priority 2008, published 2009).

Columns and labels:
[1] = system: inducible nitric oxide synthase (iNOS); assay: iNOS expression by Western blot in LPS-treated RAW cells; format: cell-based; conditions: various amounts for 30 min, LPS 100 ng/ml 16 hours
Procedure: Cell lysates were analyzed by Western blot with antibodies to the inducible nitric oxide synthase (iNOS) (above) and HuR (below) as a negative control. […] (FIG. 3).

[2] = system: Class I and Class II HDAC isoforms; assay: HDAC isoform inhibition (all Class I and Class II); format: biochemical
[3] = system: sepsis by treatment with LPS; assay: Survival after induction of sepsis by LPS (endotoxemia); format: in vivo
Procedure: At 72 hours after induction of sepsis by treatment with LPS, a subject has a 0% chance of survival. […] This remains constant through 144 hours.
Culture media was collected and analyzed by ELISA for TNFα, IL-1β and IL-6 proteins (n=3±S.D.). […] (FIG. 4).

[4] = system: RAW cells; assay: Secreted cytokine protein by ELISA in LPS-treated RAW cells; format: cell-based; conditions: 0.1 μM for 30 min, LPS 100 ng/ml for 16 hr
From the text: Culture media was collected and analyzed by ELISA for TNFα, IL-1β and IL-6 proteins (n=3±S.D.). […] (FIG. 2).

[5] = system: RAW cells; assay: Cytokine mRNA expression by RT-PCR in LPS-treated RAW cells; format: cell-based; conditions: 0.1 μM for 30 min, then 100 ng/ml LPS 6 hours
Procedure: RT-PCR was performed (30 cycles), and PCR products were analyzed on a 1% agarose gel. […] (FIG. 1)

## CN(C)Cc1c(C(=O)NCCOc2ccc(C(=O)NO)cc2)oc2ccccc12 [Compound 1]
[1]
  iNOS expression: decreases in a dose-dependant manner
[2]
  inhibition of all Class I and Class II HDAC isoforms: inhibits all Class I and Class II HDAC isoforms
[3]; 25 μg/gram of body weight, at 72 hours after LPS, steady through 144 hours
  chances of survival: 30%
[3]; 50 μg/gram of body weight, constant through 144 hours after LPS
  chances of survival: 70%
[3]; FIG. 4 legend, dose not stated
  increase of survival from endotoxemia: 70%
[4]
  IL-1β protein in culture media: decreases
  IL-6 protein in culture media: decreases
  TNFα protein in culture media: decreases
[5]
  RNA level of IL-1β: decreased
  RNA level of IL-6: decreased
  RNA level of TNF: decreased
